From patent US20250011289A1, “1H-BENZO[B]AZEPIN-2(3H)-ONE COMPOUNDS, COMPOSITIONS AND METHODS OF TREATING CANCER” (Chengdu Anticancer Bioscience, Ltd., priority 2021, published 2025)
Where two headings read alike, the source gives them in different places.

Columns and labels:
[1] = tested on: RPE-Neo or RPE-MYC cells; test: MTT assay of cellular proliferation; type: cell-based; conditions: compounds at 20 nM to 20 μM; read-out: Min. Effective conc. for Proliferative arrest (>50%)
Method: Human cancer cell lines were obtained from ATCC and cultured in DMEM (Gibco, Cleveland. TN, USA) supplemented with 5% fetal bovine serum (Gibco), penicillin (100 U/mL)-streptomycin (100 μg/mL) (Gibco, Cat. No. 15140-122), 2 mM L-glutamine (Gibco, 200 mM solution, Cat. No. 25030081), and 1 mM sodium pyruvate (Gibco, 100 mM solution, Cat. No. 11360070) at 37° C. in a humidified incubator that was maintained at 5% CO2.
(§1) Screening was conducted as described before (Li et al. 2019). Briefly, RPE-Neo or RPE-MYC or RPE-MYC expressing an EGFP-Histone 2B fusion protein were passaged as batches of 96-well plates, 18-24 hours before exposure to the chemical compounds of the present disclosure at concentrations from 20 nM to 20 μM. At 24, 48 or 72 hours after initiation of treatment, cells were analyzed for either an arrest in mitosis or a change in DNA content by GE 1N-Cell Analyzer 2000. MTT assays of cellular proliferation were performed as previously described (Li et al. 2019).
(§2) As set forth in table 2 below, an values of greater than or equal to 1 nM and less than or equal to 1.0 μM is marked “A”; a value greater than 1.00 μM and less than or equal to 10.0 μM is marked “B”; a value greater than 10.0 μM and less than or equal to 30.0 μM is marked “C”; and a value greater than 30.0 μM and less than 1000 μM is marked “D.”

[2] = tested on: RPE-Neo or RPE-MYC or RPE-MYC expressing an EGFP-Histone 2B fusion protein; test: Phenotypic screening assay (arrest in mitosis or change in DNA content, IN-Cell Analyzer); type: cell-based; conditions: compounds at 20 nM to 20 μM, analysed 24, 48 or 72 hours after initiation of treatment
Method: as §1, §2

[3] = read-out: Min. Effective conc. for Along with Cell Death
[4] = read-out: Min. Effective conc. for Mitotic Arrest (>5%)
[5] = read-out: Min. Effective conc. for Polyploidy (≥5%)

Measured: minimal effective concentration

Cc1ccc2c(c1)N(Cc1ccc(C)c(F)c1)C(=O)CC(c1nnc(C3CC3)o1)=C2Br [Compound 20-12, 5-bromo-4-(5-cyclopropyl-1,3,4-oxadiazol-2-yl)-1-(3-fluoro-4-methylbenzyl)-8-methyl-1,3-dihydro-2H-benzo[b]azepin-2-one]
0.001 to 1 µM: [1] | [2]; [3] | [2]; [4] | [2]; [5]

Cc1ccc2c(c1)N(Cc1ccc(C)c(F)c1)C(=O)CC(c1nnc(C)o1)=C2Br [Compound 20-13, 5-bromo-1-(3-fluoro-4-methylbenzyl)-8-methyl-4-(5-methyl-1,3,4-oxadiazol-2-yl)-1,3-dihydro-2H-benzo[b]azepin-2-one]
0.001 to 1 µM: [1] | [2]; [3] | [2]; [4] | [2]; [5]

Cc1ccc(CN2C(=O)CC(c3nnc(C4CC4)o3)=C(Br)c3ccc(C(F)(F)F)cc32)cc1F [Compound 20-14, 5-bromo-4-(5-cyclopropyl-1,3,4-oxadiazol-2-yl)-1-(3-fluoro-4-methylbenzyl)-8-(trifluoromethyl)-1,3-dihydro-2H-benzo[b]azepin-2-one]
0.001 to 1 µM: [1] | [2]; [3] | [2]; [4] | [2]; [5]

Cc1ccc(CN2C(=O)CC(c3nnc(C4CC4)o3)=C(Br)c3cccc(F)c32)cc1F [Compound 20-15, 5-bromo-4-(5-cyclopropyl-1,3,4-oxadiazol-2-yl)-9-fluoro-1-(3-fluoro-4-methylbenzyl)-1,3-dihydro-2H-benzo[b]azepin-2-one]
0.001 to 1 µM: [1] | [2]; [3] | [2]; [4] | [2]; [5]

Cc1ccc(CN2C(=O)CC(c3nnc(C4CC4)o3)=C(Br)c3c(F)cccc32)cc1F [Compound 20-16, 5-bromo-4-(5-cyclopropyl-1,3,4-oxadiazol-2-yl)-6-fluoro-1-(3-fluoro-4-methylbenzyl)-1,3-dihydro-2H-benzo[b]azepin-2-one]
0.001 to 1 µM: [1] | [2]; [3] | [2]; [4] | [2]; [5]

Cc1ccc(CN2C(=O)CC(c3nnc(C4CC4)o3)=C(Br)c3cc(F)ccc32)cc1F [Compound 20-17, 5-bromo-4-(5-cyclopropyl-1,3,4-oxadiazol-2-yl)-7-fluoro-1-(3-fluoro-4-methylbenzyl)-1,3-dihydro-2H-benzo[b]azepin-2-one]
0.001 to 1 µM: [1] | [2]; [3] | [2]; [4] | [2]; [5]

Cc1ccc(CN2C(=O)CC(c3nnc(C4CC4)o3)=C(Br)c3cccc(C)c32)cc1F [Compound 20-18, 5-bromo-4-(5-cyclopropyl-1,3,4-oxadiazol-2-yl)-1-(3-fluoro-4-methylbenzyl)-9-methyl-1,3-dihydro-2H-benzo[b]azepin-2-one]
0.001 to 1 µM: [1] | [2]; [3] | [2]; [4] | [2]; [5]

C#Cc1ccc2c(c1)N(Cc1ccc(C)c(F)c1)C(=O)CC(c1nnc(C3CC3)o1)=C2Br [Compound 20-20, 5-bromo-4-(5-cyclopropyl-1,3,4-oxadiazol-2-yl)-8-ethynyl-1-(3-fluoro-4-methylbenzyl)-1,3-dihydro-2H-benzo[b]azepin-2-one]
0.001 to 1 µM: [1] | [2]; [3] | [2]; [4] | [2]; [5]

COc1ccc(CN2C(=O)CC(c3nnc(C4CC4)o3)=C(Br)c3ccccc32)cc1 [Compound 20-21, 5-bromo-4-(5-cyclopropyl-1,3,4-oxadiazol-2-yl)-1-(4-methoxybenzyl)-1,3-dihydro-2H-benzo[b]azepin-2-one]
0.001 to 1 µM: [1] | [2]; [3] | [2]; [4] | [2]; [5]

Cc1ccc(CN2C(=O)CC(c3nnc(C4CC4)o3)=C(Br)c3ccc(C(N)=O)cc32)cc1F [Compound 20-22, 5-bromo-4-(5-cyclopropyl-1,3,4-oxadiazol-2-yl)-1-(3-fluoro-4-methylbenzyl)-2-oxo-2,3-dihydro-1H-benzo[b]azepine-8-carboxamide]
0.001 to 1 µM: [1] | [2]; [3] | [2]; [4] | [2]; [5]

Cc1ccc(CN2C(=O)CC(c3nnc(C4CC4)o3)=C(Br)c3ccc(OCCCN4CCOCC4)cc32)cc1F [Compound 20-23, 5-bromo-4-(5-cyclopropyl-1,3,4-oxadiazol-2-yl)-1-(3-fluoro-4-methylbenzyl)-8-(3-morpholinopropoxy)-1,3-dihydro-2H-benzo[b]azepin-2-one]
0.001 to 1 µM: [1] | [2]; [3] | [2]; [4] | [2]; [5]

COc1ccc(CN2C(=O)CC(c3nnc(C4CC4)o3)=C(Br)c3ccccc32)cc1F [Compound 20-25, 5-bromo-4-(5-cyclopropyl-1,3,4-oxadiazol-2-yl)-1-(3-fluoro-4-methoxybenzyl)-1,3-dihydro-2H-benzo[b]azepin-2-one]
0.001 to 1 µM: [1] | [2]; [3] | [2]; [4] | [2]; [5]

[2H]C(c1ccc(C)c(F)c1)N1C(=O)CC(c2nnc(C3CC3)o2)=C(Br)c2ccccc21 (stereo not drawn) [Compound 20-26, 5-bromo-4-(5-cyclopropyl-1,3,4-oxadiazol-2-yl)-1-((3-fluoro-4-methylphenyl)methyl-d)-1,3-dihydro-2H-benzo[b]azepin-2-one]
0.001 to 1 µM: [1] | [2]; [3] | [2]; [4] | [2]; [5]

[2H]C([2H])(c1ccc(C)c(F)c1)N1C(=O)CC(c2nnc(C3CC3)o2)=C(Br)c2ccccc21 [Compound 20-27, 5-bromo-4-(5-cyclopropyl-1,3,4-oxadiazol-2-yl)-1-((3-fluoro-4 methylphenyl)methyl-d2)-1,3-dihydro-2H-benzo[b]azepin-2-one]
0.001 to 1 µM: [1] | [2]; [3] | [2]; [4] | [2]; [5]

Cc1cc(F)c(CN2C(=O)CC(c3nnc(C4CC4)o3)=C(Br)c3ccccc32)cc1F [Compound 20-28, 5-bromo-4-(5-cyclopropyl-1,3,4-oxadiazol-2-yl)-1-(2,5-difluoro-4-methylbenzyl)-1,3-dihydro-2H-benzo[b]azepin-2-one]
0.001 to 1 µM: [1] | [2]; [3] | [2]; [4] | [2]; [5]
